Entries after “also recorded” stand apart in the source; their conditions may differ.
Legend:
[1] = test system: Gibco Human Episomal iPSCs and WA09 ESCs; test: DOE of small molecules on PSC expansion in suspension culture (viable cell counts Day 5); type: cell-based; conditions: for fold-expansion of PSCs: added to base PSC medium+1× RevitaCell, 24 well, 120 RPM, viable cell counts Day 5
Method: Design of Experiment (DOE) was conducted using Gibco Human Episomal induced pluripotent stem cells (iPSCs) and WA09 embryonic stem cells (ESCs) to determine the impact of the small molecules. These PSCs were seeded in base PSC medium+1× RevitaCell™ Supplement and grown in a 24 well non-tissue culture treated plate at 120 RPM on an orbital shaker platform and cell expansion was assessed via viable cell counts on Day 5. […] FIG. 1 depicts results from the assessment of various concentrations of an anti-clumping agent and individual small molecules CHIR99021, PD0325901, SP00125, BIRD796, and Go6983on the expansion of iPSCs and WA09 hESCs.

[2] = test system: Gibco Human Episomal iPSCs; test: Spheroid growth and Oct4 pluripotency by seeding supplement (RevitaCell, Y-27632, Cellartis Supplement 3); type: cell-based
Method: PSC fold-expansion and pluripotency maintenance was compared for spheroid cultures seeded with a ROCK inhibitor or with the Cellartis Supplement 3 of the commercially available Cellartis Def-CS 3D medium system and grown in the complete PSC medium provided herein. Gibco Human Episomal iPSCs were expanded in 24-well non tissue culture treated plates at 120 RPM on an orbital shaker platform in the complete PSC medium to determine whether the type of ROCKi or Supplement selected for use affects the overall spheroid growth. […] Overall spheroid growth and expansion was assessed after the cells had grown for 5 days in the 24 well plate (FIG. 15A). The pluripotency of the spheroids was also assessed after the cells had grown for 5 days in the 24 well plate (FIG. 15B). To assess pluripotency, spheroids were dissociated using StemPro Accutase and replated into 2D format for 24 hours. After 24 hours of growth, the cells were fixed, permeabilized and stained with DAPI and for Oct4 expression to determine the pluripotency of the dissociated cells. The number of cells expressing Oct4 was compared to the total number of cells expressing DAPI, enabling an estimation of the percentage of pluripotent stem cells obtained from the spheroids.

[3] = test system: Gibco Human Episomal iPSCs; test: ROCKi comparison (Chroman I, Pinacidil, RevitaCell vs Y-27632) in PSC medium; type: cell-based; conditions: 1× RevitaCell, 60 μM Pinacidil; for spheroid morphology (size): 50 nM Chroman I, 10 μM Y-27632; for spheroid expansion: Chroman I vs 10 μM Y-27632, CHIR99021 containing PSC medium, 5 days
Method: Gibco Human Episomal iPSCs were expanded in non-tissue culture treated 6 well plates on an orbital shaker set to 70 RPM. The cells were passaged from 2D cultures using StemPro Accutase and grown in PSC Medium. Cells were seeded on Day 0 at a concentration of 150,000 cells/mL in a 2 mL volume, with a ROCK inhibitor added to the culture. […] Spheroids were grown over 5 days, with 50% medium replacement performed daily.

[4] = test system: Gibco Human Episomal iPSCs; test: ROCK inhibitor pairing with PSC base medium formulation; type: cell-based; conditions: ROCKi used at time of passaging
Method: Following 5-day growth with 50% medium exchange daily and constant agitation on an orbital shake platform, fold-change upon expansion was assessed.

iPSCs = test: DOE on balance of CHIR99021, Go6983 and BSA: spheroid formation, fold-expansion, Oct4 pluripotency; type: cell-based, human; conditions: for concentration giving maximal fold change (DOE prediction profiler): iPSCs in suspension, preference stated across WA09 ESCs and Gibco Human Episomal iPSCs
Method: DOE was conducted to assess the balance of CHIR99021, Go6983 (a broad-spectrum PKC inhibitor), and BSA in achieving optimum fold-expansion, while also providing support of maintenance of pluripotency. […] Variation in spheroid size resulting from the various culture conditions was assess by phase contrast imaging. […] At day 5 of culture spheroids were dissociated using StemPro Accutase and replated into 2D format for 24 hours. After 24 hours of growth, the cells were fixed, permeabilized and stained with DAPI and for Oct4 expression to determine the pluripotency of the dissociated cells. The number of cells expressing Oct4 was compared to the total number of cells expressing DAPI, enabling an estimation of the percentage of pluripotent stem cells obtained from the spheroids.
Various concentrations of Pinacidil, CHIR99021, Go6893, and BSA, with or without anti-clumping agent, was assessed for achieving fold-expansion of iPSCs in suspension culture. […] Overall, CHIR99021 facilitates spheroid formation and a balance of albumin and CHIR99021 maintains appropriate spheroid size.

H9 (WA09) ESCs = test: ESC expansion in PSC basal medium with or without CHIR99021 vs mTeSR1; type: cell-based, human; conditions: 10 μM Y-27632 at passaging; Day 5
Method: PSC expansion using the PSC media formulations provided herein was compared to expansion in commercially available media. H9 (WA09) ESCs were expanded in PSC basal medium in the absence of CHIR99021, PSC basal medium in the presence of CHIR99021, and in the mTeSR1 media formulation (Stem Cell Technologies). PSCs were passaged using StemPro™ Accutase™ cell dissociation reagent and grown in 6 well non-tissue culture treated plates seeded at 150,000 viable cells/mL in 2 mL of media and agitated at 70 RPM on an orbital shaker platform. […] Cell expansion was assessed via viable cell counts on Day 5. Cultures were fed with 50% medium replacement performed daily.

[5] = test system: Gibco Human Episomal iPSCs and WA09 ESCs; test: Expansion and spheroid morphology with small molecules added continuously vs Day 1 only; type: cell-based
Method: Cell morphology was assessed following exposure to formulations containing 3 μM CHIR99021 in continuous culture media vs exposure at day 1 only. iPSCs were grown in a 24 well non-tissue culture treated plate at 120 RPM on an orbital shaker platform and cell morphology was assessed on Day 5. In this experiment, the small molecules were added on Day 1 only or throughout the culture period. […] Cell expansion and morphology were assessed for PSC suspension cultures following incubation with the base PSC media formulation containing CHIR99021 alone or in combination with one or more of the other small molecules and/or anti-clumping agent. PSCs were grown in a 24 well non-tissue culture treated plate at 120 RPM on an orbital shaker platform and cell morphology was examined and cell expansion was assessed via viable cell counts on Day 5. In this experiment, the small molecules were either added on Day 1 only or throughout the culture period. In these figures, the x-axis indicates various formulations tested and the y-axis indicates the fold-change in viable cell counts from day 1 to day 5 of culture. Micrographs of the cell cultures at day 5 under certain conditions are also shown. […] It was surprising that the increase in fold-change could be accomplished through inclusion of CHIR99021 at the time of passage only (e.g., Day 1 only).

[6] = test system: Gibco Human Episomal iPSCs; test: Optimal range of CHIR99021 in 100 mL PBS bioreactors: fold-change and viability; type: cell-based
Method: The optimal range of CHIR99021 for use in the PSC Medium formulation if included in the formulation for everyday feeds was assessed. Gibco Human Episomal iPSCs were expanded in 100 mL PBS bioreactors in duplicate and cell counts were performed at the end of each passage. […] The sugar source (glucose/galactose) and the concentration of CHIR99021 was varied. The feed schedule was also modified to include every day vs. every-other-day feed schedules. Fold-change upon expansion and viability were assessed for each condition. CHIR99021 concentrations as low as 0.6 μM supported optimal cell expansion on an every-day medium exchange feed schedule (FIG. 11A) and viability on an every-day and every-other-day medium exchange feed schedule (FIG. 11B). […] (FIGS. 11A-11B).

## O=C1c2ccccc2-c2n[nH]c3cccc1c23 [SP00125]
[1]
  fold-expansion of PSCs: detrimental to overall PSC expansion

## C[C@@H](N)[C@H]1CC[C@H](C(=O)Nc2ccncc2)CC1 [Y-27632, (R)-(+)-trans-4-(1-aminoethyl)-N-(4-pyridyl)cyclohexanecarboxamide]
[2]; added on day 1 in complete PSC medium, 24 well, 120 RPM
  spheroid size and morphology on Day 5: most efficient with larger spheroids
[2]; after 5 days, replated 24 hours
  maintenance of pluripotency (Oct4 vs DAPI): maintain high levels of pluripotent stem cells
[3]
  spheroid morphology (size): morphologically larger
  spheroid expansion: optimal performance

## COc1ccc2c(c1)C[C@H](C(=O)Nc1ccc(-c3cn[nH]c3)cc1OCCN(C)C)CO2 [Chroman I]
[3]
  spheroid morphology (size): morphologically larger
  spheroid expansion: perform similarly

## CC(N/C(=N\C#N)Nc1ccncc1)C(C)(C)C (stereo not drawn) [Pinacidil]
[3]
  spheroid morphology (size): morphologically smaller
  spheroid expansion: inferior to 10 μM Y-27632

## O=C(NCc1ccccc1)c1csc(Nc2ccncn2)n1 [Thiazovivin]
[4]
  spheroid size relative to Pinacidil: Larger spheroids

## COc1ccc2c(c1)c(C1=C(c3c[nH]c4ccccc34)C(=O)NC1=O)cn2CCCN(C)C [Go6983]
iPSCs
  concentration giving maximal fold change (DOE prediction profiler): exclusion of Go6983 and anti-clump agent is preferred

## O=C(NOC[C@H](O)CO)c1ccc(F)c(F)c1Nc1ccc(I)cc1F [PD0325901]
[1]
  fold-expansion of PSCs: detrimental to overall PSC expansion

## Cc1cnc(-c2cnc(NCCNc3ccc(C#N)cn3)nc2-c2ccc(Cl)cc2Cl)[nH]1 [CHIR99021, 6-[[2-[[4-(2,4-dichlorophenyl)-5-(5-methyl-1H-imidazol-2-yl)-2-pyrimidinyl]amino]ethyl]amino]-3-pyridinecarbonitrile]
H9 (WA09) ESCs
  fold-expansion compared to PSC basal medium without CHIR99021: enhances fold-expansion
  fold-expansion compared to mTeSR1: significantly enhanced fold-expansion
[5]; 3 μM CHIR99021 included on a continual basis
  spheroid morphology Day 5: aberrant differentiation was noted for some conditions
[5]; CHIR99021 at various concentrations only at time of passaging
  fold-expansion: effective at increasing fold-expansion
[5]; CHIR99021 included only at time of passaging (Day 1)
  spheroid morphology Day 5: typical smooth edges and spheroid morphology; also recorded: maintain normal spheroidal morphology
[6]; continuously in medium, every-day medium exchange
  CHIR99021 concentration supporting optimal cell expansion: ≥ 0.6 µM
[6]; every-day and every-other-day medium exchange
  CHIR99021 concentration supporting viability: ≥ 0.6 µM
[6]; fed on every-other-day cadence
  CHIR99021 concentration supporting optimal fold-expansion: up to 1.5 μM
iPSCs
  concentration giving maximal fold change (DOE prediction profiler): intermediate concentration
iPSCs; seeded with 10 μM Y-27632, 3 μM CHIR99021 present or absent
  spheroid formation: aids in spheroid formation
[1]; CHIR99021 alone in base PSC medium formulation
  cell nucleation: assisted in cell nucleation
[1]
  fold-expansion of PSCs: significant improvement in fold-expansion

Source: US20210395698A1, “METHODS AND COMPOSITIONS FOR CULTIVATING PLURIPOTENT CELL SUSPENSIONS” (Life Technologies Corporation, priority 2020, published 2021)
